Data published in PubChem BioAssay AID1963873 (Molecular Pharmacology Branch, DTP, NCI, 2024).

Tested on: 276233-004-R-J1-PDC KRAS spheroids with HUVEC/MSC, viability
Assay: Anticancer human tumor 276233-004-R-J1-PDC patient-derived colon adenocarcinoma cell line growth inhibition [KRAS2]
Details: for IC50: curve of first compound; for viability, T/C: stronger effect = lower value
In short: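 KRAS-mutant tumor cells were grown as spheroids with HUVEC endothelial cells and human MSCs as stroma. Targeted agents were tested alone and with KRAS pathway inhibitors. Doses started at or near clinical Cmax, or 10 microM, descending half-log.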

[1] = second compound 0.1 µM, first compound 0.000316 µM
[2] = second compound 0.1 µM, first compound 0.001 µM
[3] = second compound 0.1 µM, first compound 0.00316 µM
[4] = second compound 0.1 µM, first compound 0.01 µM
[5] = second compound 0.1 µM, first compound 0.0316 µM
[6] = second compound 0.316 µM, first compound 0.000316 µM
[7] = second compound 0.316 µM, first compound 0.001 µM
[8] = second compound 0.316 µM, first compound 0.00316 µM
[9] = second compound 0.316 µM, first compound 0.01 µM
[10] = second compound 0.316 µM, first compound 0.0316 µM
[11] = second compound 1 µM, first compound 0.000316 µM
[12] = second compound 1 µM, first compound 0.001 µM
[13] = second compound 1 µM, first compound 0.00316 µM
[14] = second compound 1 µM, first compound 0.01 µM
[15] = second compound 1 µM, first compound 0.0316 µM
[16] = second compound 3.16 µM, first compound 0.000316 µM
[17] = second compound 3.16 µM, first compound 0.001 µM
[18] = second compound 3.16 µM, first compound 0.00316 µM
[19] = second compound 3.16 µM, first compound 0.01 µM
[20] = second compound 3.16 µM, first compound 0.0316 µM
[21] = second compound 10 µM, first compound 0.000316 µM
[22] = second compound 10 µM, first compound 0.001 µM
[23] = second compound 10 µM, first compound 0.00316 µM
[24] = second compound 10 µM, first compound 0.01 µM
[25] = second compound 10 µM, first compound 0.0316 µM
[26] = second compound 0.1 µM, first compound 0.1 µM
[27] = second compound 0.1 µM, first compound 0.316 µM
[28] = second compound 0.1 µM, first compound 1 µM
[29] = second compound 0.1 µM, first compound 3.16 µM
[30] = second compound 0.316 µM, first compound 0.1 µM
[31] = second compound 0.316 µM, first compound 0.316 µM
[32] = second compound 0.316 µM, first compound 1 µM
[33] = second compound 0.316 µM, first compound 3.16 µM
[34] = second compound 1 µM, first compound 0.1 µM
[35] = second compound 1 µM, first compound 0.316 µM
[36] = second compound 1 µM, first compound 1 µM
[37] = second compound 1 µM, first compound 3.16 µM
[38] = second compound 3.16 µM, first compound 0.1 µM
[39] = second compound 3.16 µM, first compound 0.316 µM
[40] = second compound 3.16 µM, first compound 1 µM
[41] = second compound 3.16 µM, first compound 3.16 µM
[42] = second compound 10 µM, first compound 0.1 µM
[43] = second compound 10 µM, first compound 0.316 µM
[44] = second compound 10 µM, first compound 1 µM
[45] = second compound 10 µM, first compound 3.16 µM
[46] = second compound 0.1 µM, first compound 10 µM
[47] = second compound 0.316 µM, first compound 10 µM
[48] = second compound 1 µM, first compound 10 µM
[49] = second compound 3.16 µM, first compound 10 µM
[50] = second compound 10 µM, first compound 10 µM
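Further: cells exposed to agents for seven days before viability read.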
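Wherever viability, T/C is given: 100% = DMSO vehicle control wells and lower values mean fewer viable cells.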

CC(=O)Nc1cccc(-n2c(=O)n(C3CC3)c(=O)c3c(Nc4ccc(I)cc4F)n(C)c(=O)c(C)c32)c1 + CNCc1ccccc1-c1csc(C(C)Nc2nc(C)nc3cc(OC)c(OC)cc23)c1
IC50 (second compound 0.1 µM): 5.93 nM
IC50 (second compound 0.316 µM): 4.86 nM
IC50 (second compound 1 µM): 1.42 nM
IC50 (second compound 3.16 µM): < 0.1 nM
IC50 (second compound 10 µM): < 0.1 nM
viability, T/C (second compound 0.1 µM, first compound 0.0001 µM): 97.3%
viability, T/C [1]: 77.5%
viability, T/C [2]: 90.5%
viability, T/C [3]: 59.2%
viability, T/C [4]: 40.1%
viability, T/C [5]: 15.5%
viability, T/C (second compound 0.316 µM, first compound 0.0001 µM): 93.5%
viability, T/C [6]: 82.1%
viability, T/C [7]: 83.7%
viability, T/C [8]: 57%
viability, T/C [9]: 35.2%
viability, T/C [10]: 17.3%
viability, T/C (second compound 1 µM, first compound 0.0001 µM): 69.4%
viability, T/C [11]: 56.5%
viability, T/C [12]: 61.1%
viability, T/C [13]: 27.6%
viability, T/C [14]: 23.1%
viability, T/C [15]: 9.49%
viability, T/C (second compound 3.16 µM, first compound 0.0001 µM): 5.56%
viability, T/C [16]: 0.89%
viability, T/C [17]: 3.86%
viability, T/C [18]: 1.97%
viability, T/C [19]: 0.56%
viability, T/C [20]: 0.49%
viability, T/C (second compound 10 µM, first compound 0.0001 µM): 0.21%
viability, T/C [21]: 2.92%
viability, T/C [22]: 4.6%
viability, T/C [23]: 3.3%
viability, T/C [24]: 0.22%
viability, T/C [25]: 3.97%

CC(=O)OC12COC1CC(O)C1(C)C(=O)C(O)C3=C(C)C(OC(=O)C(O)C(NC(=O)OC(C)(C)C)c4ccccc4)CC(O)(C(OC(=O)c4ccccc4)C21)C3(C)C (stereo not given) + CNCc1ccccc1-c1csc(C(C)Nc2nc(C)nc3cc(OC)c(OC)cc23)c1
IC50 (second compound 0.1 µM): > 3160 nM
IC50 (second compound 0.316 µM): > 3160 nM
IC50 (second compound 1 µM): > 3160 nM
IC50 (second compound 3.16 µM): 21.6 nM
IC50 (second compound 10 µM): < 10 nM
viability, T/C [4]: 102%
viability, T/C [5]: 96.3%
viability, T/C [26]: 83.4%
viability, T/C [27]: 81.1%
viability, T/C [28]: 105%
viability, T/C [29]: 87.5%
viability, T/C [9]: 92%
viability, T/C [10]: 86.1%
viability, T/C [30]: 77%
viability, T/C [31]: 87.8%
viability, T/C [32]: 93.8%
viability, T/C [33]: 95.7%
viability, T/C [14]: 103%
viability, T/C [15]: 91.4%
viability, T/C [34]: 89.9%
viability, T/C [35]: 111%
viability, T/C [36]: 119%
viability, T/C [37]: 117%
viability, T/C [19]: 105%
viability, T/C [20]: 0.58%
viability, T/C [38]: 5.25%
viability, T/C [39]: 1.73%
viability, T/C [40]: 1.78%
viability, T/C [41]: 104%
viability, T/C [24]: 4.38%
viability, T/C [25]: 2.71%
viability, T/C [42]: 6.51%
viability, T/C [43]: 1.17%
viability, T/C [44]: 110%
viability, T/C [45]: 0.46%

CN(C)C/C=C/C(=O)Nc1cc2c(Nc3ccc(F)c(Cl)c3)ncnc2cc1O[C@H]1CCOC1 + CNCc1ccccc1-c1csc(C(C)Nc2nc(C)nc3cc(OC)c(OC)cc23)c1
IC50 (second compound 0.1 µM): > 100 nM
IC50 (second compound 0.316 µM): > 100 nM
IC50 (second compound 1 µM): > 100 nM
IC50 (second compound 3.16 µM): < 0.316 nM
IC50 (second compound 10 µM): < 0.316 nM
viability, T/C [1]: 95.8%
viability, T/C [2]: 106%
viability, T/C [3]: 89%
viability, T/C [4]: 95.2%
viability, T/C [5]: 86.8%
viability, T/C [26]: 74.7%
viability, T/C [6]: 95.9%
viability, T/C [7]: 82.5%
viability, T/C [8]: 83.1%
viability, T/C [9]: 73%
viability, T/C [10]: 67.9%
viability, T/C [30]: 69.8%
viability, T/C [11]: 81.4%
viability, T/C [12]: 73.5%
viability, T/C [13]: 77.3%
viability, T/C [14]: 81.2%
viability, T/C [15]: 63%
viability, T/C [34]: 79.2%
viability, T/C [16]: 4.26%
viability, T/C [17]: 2.41%
viability, T/C [18]: 3.56%
viability, T/C [19]: 3.46%
viability, T/C [20]: 8.28%
viability, T/C [38]: 1.18%
viability, T/C [21]: 5.68%
viability, T/C [22]: 0.19%
viability, T/C [23]: 0.31%
viability, T/C [24]: 0.19%
viability, T/C [25]: 0.88%
viability, T/C [42]: 0.67%

COC(=O)c1ccc2c(C(=Nc3ccc(N(C)C(=O)CN4CCN(C)CC4)cc3)c3ccccc3)c(O)[nH]c2c1 + CNCc1ccccc1-c1csc(C(C)Nc2nc(C)nc3cc(OC)c(OC)cc23)c1
IC50 (second compound 0.1 µM): > 10000 nM
IC50 (second compound 0.316 µM): > 10000 nM
IC50 (second compound 1 µM): 1140 nM
IC50 (second compound 3.16 µM): < 31.6 nM
IC50 (second compound 10 µM): < 31.6 nM
viability, T/C [5]: 95.9%
viability, T/C [26]: 80.5%
viability, T/C [27]: 87.7%
viability, T/C [28]: 70.1%
viability, T/C [29]: 87.7%
viability, T/C [46]: 70.1%
viability, T/C [10]: 95.5%
viability, T/C [30]: 91.7%
viability, T/C [31]: 71.4%
viability, T/C [32]: 74.5%
viability, T/C [33]: 70.4%
viability, T/C [47]: 74.5%
viability, T/C [15]: 59.4%
viability, T/C [34]: 58.5%
viability, T/C [35]: 56.5%
viability, T/C [36]: 54.6%
viability, T/C [37]: 12.1%
viability, T/C [48]: 14.6%
viability, T/C [20]: 2.33%
viability, T/C [38]: 4.5%
viability, T/C [39]: 7.73%
viability, T/C [40]: 3.3%
viability, T/C [41]: 9.99%
viability, T/C [49]: 5.4%
viability, T/C [25]: 3.64%
viability, T/C [42]: 3.36%
viability, T/C [43]: 4.73%
viability, T/C [44]: 6.01%
viability, T/C [45]: 1.8%
viability, T/C [50]: 0.53%

COc1cc(Nc2ncc3c(n2)-c2ccc(Cl)cc2C(c2c(F)cccc2OC)=NC3)ccc1C(=O)O + CNCc1ccccc1-c1csc(C(C)Nc2nc(C)nc3cc(OC)c(OC)cc23)c1
IC50 (second compound 0.1 µM): > 10000 nM
IC50 (second compound 0.316 µM): > 10000 nM
IC50 (second compound 1 µM): > 10000 nM
IC50 (second compound 3.16 µM): < 31.6 nM
IC50 (second compound 10 µM): < 31.6 nM
viability, T/C [5]: 103%
viability, T/C [26]: 110%
viability, T/C [27]: 75.7%
viability, T/C [28]: 104%
viability, T/C [29]: 95.7%
viability, T/C [46]: 84.2%
viability, T/C [10]: 107%
viability, T/C [30]: 93%
viability, T/C [31]: 99.1%
viability, T/C [32]: 97.7%
viability, T/C [33]: 91.9%
viability, T/C [47]: 94.6%
viability, T/C [15]: 80.4%
viability, T/C [34]: 86.1%
viability, T/C [35]: 111%
viability, T/C [36]: 85%
viability, T/C [37]: 72.1%
viability, T/C [48]: 66.3%
viability, T/C [20]: 5.21%
viability, T/C [38]: 1.97%
viability, T/C [39]: 1.67%
viability, T/C [40]: 4.48%
viability, T/C [41]: 4.94%
viability, T/C [49]: 0.76%
viability, T/C [25]: 2.44%
viability, T/C [42]: 3.58%
viability, T/C [43]: 0.22%
viability, T/C [44]: 0.22%
viability, T/C [45]: 0.73%
viability, T/C [50]: 0.99%

O=C(c1cc(Cc2n[nH]c(=O)c3ccccc23)ccc1F)N1CCN(C(=O)C2CC2)CC1 + CNCc1ccccc1-c1csc(C(C)Nc2nc(C)nc3cc(OC)c(OC)cc23)c1
IC50 (second compound 0.1 µM): > 10000 nM
IC50 (second compound 0.316 µM): > 10000 nM
IC50 (second compound 1 µM): > 10000 nM
IC50 (second compound 3.16 µM): < 31.6 nM
IC50 (second compound 10 µM): < 31.6 nM
viability, T/C [5]: 98.5%
viability, T/C [26]: 99.5%
viability, T/C [27]: 84.5%
viability, T/C [28]: 87.5%
viability, T/C [29]: 110%
viability, T/C [46]: 96.5%
viability, T/C [10]: 103%
viability, T/C [30]: 80.8%
viability, T/C [31]: 90.3%
viability, T/C [32]: 85.3%
viability, T/C [33]: 84%
viability, T/C [47]: 68.7%
viability, T/C [15]: 99.2%
viability, T/C [34]: 86.8%
viability, T/C [35]: 88.5%
viability, T/C [36]: 73.8%
viability, T/C [37]: 87.1%
viability, T/C [48]: 78.2%
viability, T/C [20]: 5.86%
viability, T/C [38]: 1.28%
viability, T/C [39]: 0.99%
viability, T/C [40]: 1.9%
viability, T/C [41]: 1.8%
viability, T/C [49]: 2.47%
viability, T/C [25]: 3.64%
viability, T/C [42]: 5.22%
viability, T/C [43]: 3.94%
viability, T/C [44]: 5.16%
viability, T/C [45]: 0.77%
viability, T/C [50]: 1.05%
